From patent US20090117598A1, “Method for identifying compounds that affect a transport of a protein through a membrane trafficking pathway” (priority 2004, published 2009)

What was measured:
Type in all cases: cell-based
[1] = test system: Hela cells; assay: fluid phase endocytosis assay (BODIPY-FL dextran internalization); settings: for number of endosomes relative to the control: BODIPY-FL dextran 20 min at 37° C., FIG. 3b; for integrated fluorescence intensity per cell relative to the control: data not shown
Protocol: For the fluid phase endocytosis assay, Hela cells in 96 well plates were washed and incubated for 120 min with the compounds in serum free buffered medium under tissue culture conditions. The medium was then replaced with serum-free buffered medium supplemented with 1 mg/ml BODIPY-FL-Dextran and 10 μM Syto60. Cells were incubated for 20 min at 37° C., then placed on a cooled block and washed extensively with ice cold phosphate buffered saline 10% w/v bovine serum albumin (Serva; Heidelberg, Germany). Plates were imaged by the Opera using 488/633 nm excitation, 3 μm focus height above the coverslip, 1000 ms or 500 ms exposure and 510 nm (50 nm bandpass) or 680 (50 nm bandpass) filters, respectively.
Fluid phase endocytosis was measured using custom written scripts in Metamorph. Cells were identified in the 633 nm excitation SYTO60 image, the nuclei segmented and cells counted. A mask was generated from this image and used to identify cells in overlay of the 488 nm BODIPY-FL dextran image, to create regions of interest around the cell borders and excise them from the image. Background was deducted from the processed BODIPY-FL dextran image that was thresholded to identify endosomes as individual regions of interest. Image pairs with less than 300 cells per field of view were rejected.
A fluid phase endocytosis assay measured the internalization of green fluorescent 40 kDa BODIPY-FI dextran. Dextrans are ideal endocytotic markers for labelling endosomes and macropinosomes. In this assay, endosomes labelled with fluorescent dextran by internalization were readily identified with the Opera instrument (FIG. 2b). Dextran internalization satisfied all the classical prerequisites for an internalization assay—it was temperature dependent, arrested at 4° C. (FIG. 2a), and required a source of energy in the medium. Endocytosis was quantified by analysis of paired images of cells labelled with green dextran and the SYTO60 nuclear counter stain. The analysis was validated on cells that had internalized green fluorescent dextran for 20 min at 37° C. or at 4° C. (FIG. 2c).
To identify compounds affecting GPCR internalization and not affecting housekeeping endocytosis, the kinase and phosphatase inhibitor collection was screened against the fluid phase endocytosis assay (FIG. 3b). The effect of the compounds was evaluated. Four compounds (staurosporine, tyrphostin 9, AG-879, GF 109203×) were identified that reduced the number of endosomes (FIG. 3b) and the integrated intensity per cell relative to the control (data not shown).

[2] = test system: ETAR internalization and fluid phase endocytosis; assay: Overlap of the ETAR internalization and the fluid phase endocytosis screen; settings: FIG. 3b
From the text: Overlap of the ETAR internalization and the fluid phase endocytosis screen was used to generate differential information from the two assays.

[3] = test system: human endothelin A receptor; assay: ETAR (GPCR) internalization assay, ETAR-EGFP in stably transfected HEK 293 cells; settings: for receptor trafficking morphology observed (visual screen of primary hits): stimulation with 40 nM endothelin-1, FIG. 4
From the text: A human endothelin A receptor cDNA clone in pCDNA3.1(−) (Invitrogen Carlsbad, USA) was excised via KpnI/HindIII and fused to the egfp coding sequence of the pEGFP-N1 vector (Clontech, Palo Alto USA) by splice overlap PCR using specific primers. The amplified fragment was digested via KpnI/EcoRV and ligated in the pCDNA3.1(−) vector digested with the same combination of restriction enzymes. The resulting pETAR-EGFP DNA was cloned, checked by sequencing and used for transfection of HEK 293 cells using standard protocols. A recombinant clone was obtained through several cycles of genetecin selection and limiting dilutions. For screening, cells were passed onto coverslip bottomed 96 well plates (Greiner; Longwood, USA, or Whatman; Brentford, UK) at a density of 4·10^3 cells/well for Hela and 2·10^4 cells/well for HEK293 cells, 48 hours in advance.
For the GPCR internalization assay, recombinant HEK cells grown were plated in 96 well plates and incubated overnight in DMEM/F12 containing 10% FBS. The plates were washed and the cells incubated for 120 min under tissue culture conditions with the compounds in 1% serum medium. The compound solutions were then exchanged for a solution with the same compound concentration and supplemented with 40 nM endothelin-1 and 10 μM Syto60. Cells were incubated for 120 min at 22° C. Plates were imaged by the Opera using 488/633 nm excitation, 3 μm focus height above the coverslip, 250 ms or 500 ms exposure and 510 nm (50 nm bandpass) or 680 (50 nm bandpass) filters, respectively. Typically, 5 image pairs (at 488 and 633 nm excitation) per well were acquired.
GPCR translocation was evaluated using scripts within the Acapella script player software environment of the Opera. The script measured translocation of the ETAR-EGFP fusion protein from the plasma membrane into recycling endosomes. Cells were first located in the 633 nm excitation SYTO60 image. Red fluorescent nuclei were identified by thresholding and edge seeking and then segmented to create a mask. The number of cells was counted and the nuclei mask used to generate a new cytoplasmic mask. Subsequently, each cell was individually segmented and cells with at least one bright recycling endosome were identified. Image analysis was performed on- and offline and analyses were rejected if the cell count was beneath 100 per field of view.
The endothelin A GPCR internalization screen was carried out using a stably transfected HEK 293 cell line expressing a fusion protein between the ETAR and a c-terminal copy of the enhanced green fluorescent protein. […] This internalization event was used as the basis for measuring trafficking of the receptor by image analysis. Serum deprived cells were stimulated with endothelin-1 at several concentrations and simultaneously counterstained with DRAQ5 or SYTO60, which are long wavelength excitable DNA and nucleic acid stains, respectively. The cells were stimulated for 120 min at 22-23° C., then imaged on the Opera automated confocal imaging reader. Images of the GFP and red counterstain fluorescence were automatically recorded and used to determine the number of cells where internalization of the receptor had occurred.
Cells were pre-treated with 10 μM compound before stimulation with 40 nM endothelin-1 to ensure a uniform and robust internalization response for the receptor.

[4] = secondary screen 0.1 μM to 50 μM, FIG. 5

Structure (SMILES) | number of endosomes relative to the control [1] | integrated fluorescence intensity per cell relative to the control ([1]; BODIPY-FL dextran) | comparison of the responses in the ETAR internalization and fluid phase endocytosis assays [2] | receptor trafficking morphology observed (visual screen of primary hits) ([3]; 10 μM compound) | other results
CC(C)(C)c1cc(/C=C(\C#N)C(N)=S)cc(C(C)(C)C)c1O [AG-879] | reduced | reduced | – | – | –
CN(C)CCCn1cc(C2=C(c3c[nH]c4ccccc34)C(=O)NC2=O)c2ccccc21 [GF 109203X] | reduced | reduced | congruent in both assays | – | –
O=C1Nc2ccc(I)cc2/C1=C/c1cc(Br)c(O)c(Br)c1 [GW 5074] | – | – | large difference | – | hit classification in the primary screen ([3]; 10 μM compound, 40 nM endothelin-1, FIG. 3b): partial hit; concentration at which effect on GPCR internalization was seen (secondary screen) [3, 4]: 50 µM; effect on accumulation of the receptor in recycling endosomes ([3]; versus untreated endothelin-1 stimulated control cells, FIG. 4d): delayed accumulation of the receptor in the recycling endosomes
O=S(=O)(NCCNC/C=C/c1ccc(Br)cc1)c1cccc2cnccc12 [H-89] | – | – | large difference | enhanced accumulation in the recycling endosome | –
Cn1cc(C2=C(c3cn(CCCSC(=N)N)c4ccccc34)C(=O)NC2=O)c2ccccc21 [Ro 31-8220] | – | – | large difference | arrest of the receptor at the plasma membrane | –
CC[C@H](C)[C@H](NC(=O)[C@H](CC(=O)O)NC(=O)[C@H](CC(C)C)NC(=O)[C@H](Cc1c[nH]cn1)NC(=O)[C@@H]1CSSC[C@H](N)C(=O)N[C@@H](CO)C(=O)N[C@H]2CSSC[C@H](NC(=O)[C@H](CCC(=O)O)NC(=O)[C@H](CCCCN)NC(=O)[C@H](CC(=O)O)NC(=O)[C@H](CCSC)NC(=O)[C@H](CC(C)C)NC(=O)[C@H](CO)NC(=O)[C@H](CO)NC2=O)C(=O)N[C@@H](C(C)C)C(=O)N[C@@H](Cc2ccc(O)cc2)C(=O)N[C@@H](Cc2ccccc2)C(=O)N1)C(=O)N[C@H](C(=O)N[C@@H](Cc1c[nH]c2ccccc12)C(=O)O)[C@@H](C)CC [endothelin-1] | – | – | – | – | ETAR localization after endothelin-1 stimulation [3]: internalization of the fluorescent ETAR into an intracellular peri-centriolar compartment; EC50 ([3]; read-out: EC50 of endothelin stimulation (ETAR-EGFP internalization)): 3.4 nM
COC(=O)/C=C/c1cc(O)ccc1O [erbstatin analogue] | – | – | large difference | arrest of the receptor in small vesicular bodies | –
O=c1c(-c2ccc(O)cc2)coc2cc(O)cc(O)c12 [genistein] | increased | significantly increased | – | – | –
CN[C@@H]1C[C@H]2O[C@@](C)([C@@H]1OC)n1c3ccccc3c3c4c(c5c6ccccc6n2c5c31)C(=O)NC4 [staurosporine] | reduced | reduced | congruent in both assays | arrest of the receptor at the plasma membrane | endosomal pixel intensity ([1]; BODIPY-FL dextran): slightly increased; effective concentration for blocking GPCR internalization (secondary screen) [3, 4]: 100 nM
CC(C)(C)c1cc(C=C(C#N)C#N)cc(C(C)(C)C)c1O [tyrphostin 9] | reduced | reduced | – | – | –
